Measured values: patent publication US8148508 (dated 2012)

Experiments:
[1] = tested on: clostripain; assay: 10 mM Tris, 1 mM EDTA, 5 mM CaCl2 (pH 8.0), varying clostripain ratios; conditions: 21° C.; also 40° C., up to 10 hr
[2] = tested on: clostripain; assay: cell free extract containing T7tag-GSDR-[GLP-2(1-34)]6 precursor, pH 6.4 NaH2PO4, 1 mM CaCl2, 1 mM DTT; conditions: 25° C., up to approximately 3 hours
[3] = tested on: clostripain; assay: clostripain digestion under different pH conditions
[4] = tested on: clostripain; assay: 50 mM HEPES buffer (pH 6.7), 1 mM CaCl2, 1 mM cysteine, 4.8 M urea, 10, 20 and 35% ethanol; conditions: 25° C., up to 30 minutes
[5] = tested on: recombinant clostripain; assay: cell free extract with 0.2 units of recombinant clostripain per mg precursor polypeptide; conditions: up to up to 3 hours

| fragment found [1] | fragment found [2] | fragment found [3] | fragment found [4] | fragment found [5] | Sequence |
| --- | --- | --- | --- | --- | --- |
| truncated GLP-2(21-34) | GLP-2 fragment (21-34) | – | – | – | HADGSFSDEMNTILDNLAARDFINWLIQTKITDR |
| – | – | GLP-2(21-33) | GLP-2(21-33) | GLP-2 fragment (21-33) | HGDGSFSDEMNTILDNLAARDFINWLIQTKITD |
